In patent US20240351986A1, “UREA COMPOUND CONTAINING 2-HETEROAROMATIC RING SUBSTITUTION, PREPARATION METHOD THEREFOR AND USE THEREOF” (SHANGHAI INSTITUTE OF MATERIA MEDICA, CHINESE ACADEMY OF …, priority 2021, published 2024):

Biological target: T1, Recombinant human CDK9/cyclin T1 (Homo sapiens, UniProt P50750)
T1 construct: purchased Carna bioscience 04-110
Experiment: CDK9 enzyme inhibitory activity (ADP-Glo kinase assay)
Format: biochemical
Details: CDK9 enzyme activity, average of two independent repeats; for inhibition at 0.01 µM: compound 10 nM, read-out: Inhibition rate at different concentrations (%) 10 nM; for inhibition at 0.1 µM: compound 100 nM, read-out: Inhibition rate at different concentrations (%) 100 nM
Description: Experimental method: Recombinant human CDK9/cyclin T1 (Carna bioscience, Cat #04-110) was diluted with dilution buffer (20 mM Tris HCl (pH 7.5), 0.02% Triton X-100, 0.01% BSA, 2 mM DTT, 0.5 mM Na3VO4, 10% Glycerol) to […], the substrates CDK7/9 tide (ThermoFisher, Cat #PV5090) and ATP (sigmaaldrich, Cat #A1852) were diluted with assay buffer (25 mM Tris HCl (pH7.5), 10 mM MgCl2, 0.5 mM EGTA (pH 8), 0.5 mM Na3VO4, 5 mMb-glycerol phosphate, 0.1% Triton X-100, 2.5 mM DTT) to final concentrations of 100 μM and […] respectively, aliquot and set aside. 2 μl of diluted recombinant human CDK9/cyclin T1, 1 μl of test compound, and 2 μl of diluted substrate CDK7/9 tide containing ATP were added to the 384-well plate. […] The positive control was the well in which enzyme and substrate were co-incubated, and the negative control was the well in which dilution buffer and substrate were co-incubated. The inhibition rate was calculated according to the following formula.

T1 sequence (P50750 whole entry): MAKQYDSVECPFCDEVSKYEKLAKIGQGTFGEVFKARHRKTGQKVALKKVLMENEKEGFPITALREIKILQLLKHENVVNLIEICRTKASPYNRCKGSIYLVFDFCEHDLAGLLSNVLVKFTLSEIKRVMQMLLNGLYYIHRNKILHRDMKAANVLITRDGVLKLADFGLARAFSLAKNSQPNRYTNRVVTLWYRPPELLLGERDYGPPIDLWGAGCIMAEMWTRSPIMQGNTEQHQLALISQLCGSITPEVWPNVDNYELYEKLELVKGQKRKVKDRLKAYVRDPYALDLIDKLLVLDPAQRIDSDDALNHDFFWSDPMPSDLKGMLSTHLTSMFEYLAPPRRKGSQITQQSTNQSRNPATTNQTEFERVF
T1 sequence (O60563 whole entry partner): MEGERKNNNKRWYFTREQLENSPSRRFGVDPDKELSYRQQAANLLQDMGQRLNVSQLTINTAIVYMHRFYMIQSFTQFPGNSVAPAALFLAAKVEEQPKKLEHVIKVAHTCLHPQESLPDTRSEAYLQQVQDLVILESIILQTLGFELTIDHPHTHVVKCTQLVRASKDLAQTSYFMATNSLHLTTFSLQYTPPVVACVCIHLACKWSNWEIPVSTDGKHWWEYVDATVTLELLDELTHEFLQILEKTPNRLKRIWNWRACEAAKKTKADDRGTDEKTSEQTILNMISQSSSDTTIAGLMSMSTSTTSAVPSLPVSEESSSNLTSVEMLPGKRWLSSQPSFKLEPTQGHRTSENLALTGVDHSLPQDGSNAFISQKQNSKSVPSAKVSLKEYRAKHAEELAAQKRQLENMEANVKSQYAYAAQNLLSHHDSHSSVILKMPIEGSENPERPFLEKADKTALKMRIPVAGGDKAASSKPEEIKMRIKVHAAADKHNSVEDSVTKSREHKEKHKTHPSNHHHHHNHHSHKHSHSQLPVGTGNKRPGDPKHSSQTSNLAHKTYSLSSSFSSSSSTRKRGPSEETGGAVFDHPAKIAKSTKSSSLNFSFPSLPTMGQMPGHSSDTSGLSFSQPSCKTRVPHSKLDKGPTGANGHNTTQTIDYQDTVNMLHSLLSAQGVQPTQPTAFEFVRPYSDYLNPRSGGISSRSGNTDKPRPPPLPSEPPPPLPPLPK

| Compound | inhibition at 0.01 µM [%] | inhibition at 0.1 µM [%] |
| --- | --- | --- |
| COc1cc(F)ccc1-c1cc(NC(=O)NC2CCC(N)CC2)ncc1Cl (centres unmarked) [Example 18, 1-((1r,4r)-4-aminocyclohexyl)-3-(5-chloro-4-(4-fluoro-2-methoxyphenyl)pyridin-2-yl)urea] | 84 | 86 |
| COc1cc(F)ccc1-c1ccnc(NC(=O)NC2CCC(NC(=O)OC(C)(C)C)CC2)c1 (centres unmarked) [Example 1, tert-butyl((1r,4r)-4-(3-(4-(4-fluoro-2-methoxyphenyl)pyridin-2-yl)ureido)cyclohexyl) carbamate] | 48.5 | 97.3 |
| CC1(C)Cc2c(-c3cc(NC(=O)NCCCN)ncc3Cl)cnn2C1 [Example 72, 1-(3-aminopropyl)-3-(5-chloro-4-(5,5-dimethyl-5,6-dihydro-4H-pyrrolo [1,2-b]pyrazol-3-yl)pyridin-2-yl)urea] | 45 | 69 |
| COc1cc(F)ccc1-c1cc(NC(=O)NC2CCC(NC(C)=O)CC2)ncn1 (centres unmarked) [Example 40, N-((1r,4r)-4-(3-(6-(4-fluoro-2-methoxyphenyl)pyrimidin-4-yl)ureido)cyclohexyl)acetamide] | 25.3 | 59.5 |
| COc1cc(F)c(F)cc1-c1ccnc(NC(=O)NC2CCC(N)CC2)c1 (centres unmarked) [Example 5, 1-((1r,4r)-4-aminocyclohexyl)-3-(4-(4,5-difluoro-2-methoxyphenyl)pyridin-2-yl)urea] | 46.2 | 88.2 |
| CC1(C)Cc2c(-c3cc(NC(=O)NC4CCCNCC4)ncc3Cl)cnn2C1 (centres unmarked) [Example 69, 1-(azepan-4-yl)-3-(5-chloro-4-(5,5-dimethyl-5,6-dihydro-4H-pyrrolo[1,2-b]pyrazol-3-yl)pyridin-2-yl)urea] | 33.8 | 79.5 |
| COc1cc(F)ccc1-c1cc(NC(=O)NC2CCC(NC(C)C)CC2)ncc1Cl (centres unmarked) [Example 23, 1-(5-chloro-4-(4-fluoro-2-methoxyphenyl)pyridin-2-yl)-3-((1r,4r)-4-(isopropylamino)cyclohexyl)urea] | 37.2 | 87.4 |
| COCCNC1CCCC(NC(=O)Nc2cc(-c3cnn4c3CC(C)(C)C4)c(Cl)cn2)C1 (centres unmarked) [Example 80, 1-(5-chloro-4-(5,5-dimethyl-5,6-dihydro-4H-pyrrolo[1,2-b]pyrazol-3-yl)pyridin-2-yl)-3-(3-((2-methoxyethyl)amino)cyclohexyl)urea] | 48 | 56 |
| COc1cc(F)ccc1-c1cc(NC(=O)NC2CCC(NC(=O)CN(C)C)CC2)ncc1Cl (centres unmarked) [Example 28, N-((1r,4r)-4-(3-(5-chloro-4-(4-fluoro-2-methoxyphenyl)pyridin-2-yl)ureido)cyclohexyl)-2-(dimethylamino)acetamide] | 29.5 | 84.3 |
| COc1cc(F)ccc1-c1ccnc(NC(=S)NC2CCC(N)CC2)c1 (centres unmarked) [Example 38, 1-((1r,4r)-4-aminocyclohexyl)-3-(4-(4-fluoro-2-methoxyphenyl)pyridin-2-yl)thiourea] | 51 | 27 |
| COc1cc(F)ccc1-c1cc(NC(=O)NC2CCC(NC(C)=O)CC2)ncc1C (centres unmarked) [Example 31, N-((1r,4r)-4-(3-(5-methyl-4-(4-fluoro-2-methoxyphenyl)pyridin-2-yl)ureido)cyclohexyl)acetamide] | 20.7 | 51.3 |
| COc1cc(F)ccc1-c1cc(NC(=O)NC2CCC(NCCC(F)(F)F)CC2)ncc1Cl (centres unmarked) [Example 26, 1-(5-chloro-4-(4-fluoro-2-methoxyphenyl)pyridin-2-yl)-3-((1r,4r)-4-((3,3,3-trifluoropropyl)amino)cyclohexyl)urea] | 39.3 | 82.5 |
| COc1cc(F)ccc1-c1cc(NC(=O)NC2CCC(NC(C)=O)CC2)ncc1F (centres unmarked) [Example 30, N-((1r,4r)-4-(3-(5-fluoro-4-(4-fluoro-2-methoxyphenyl)pyridin-2-yl)ureido)cyclohexyl)acetamide] | 23.1 | 55.3 |
| CC1(C)Cc2c(-c3cc(NC(=O)NC4CCNCC4)ncc3Cl)cnn2C1 [Example 68, 1-(5-chloro-4-(5,5-dimethyl-5,6-dihydro-4H-pyrrolo[1,2-b]pyrazol-3-yl)pyridin-2-yl)-3-(piperidin-4-yl)urea] | 44 | 89 |
| COCCNC1CCC(NC(=O)Nc2cc(-c3ccc(F)cc3Cl)ccn2)CC1 (centres unmarked) [Example 11, 1-(4-(2-chloro-4-fluorophenyl)pyridin-2-yl)-3-((1r,4r)-4-((2-methoxyethyl)amino)cyclohexyl)urea] | 24.7 | 93.4 |

Next, values leading:

| inhibition at 0.01 µM [%] | inhibition at 0.1 µM [%] | Compound |
| --- | --- | --- |
| 72 | 95.7 | CC(=O)NC1CCC(NC(=O)Nc2cc(-c3cnn4c3CC(C)(C)C4)ccn2)CC1 (centres unmarked) [Example 16, 1-((1r,4r)-4-(3-(4-(5,5-dimethyl-5,6-dihydro-4H-pyrrolo[1,2-b]pyrazol-3-yl)pyridin-2-yl)ureido)cyclohexyl)acetamide] |
| 68.2 | 90.2 | COCCNC1CCC(NC(=O)Nc2cc(-c3cnn4c3CC(C)(C)C4)ccn2)CC1 (centres unmarked) [Example 17, 1-(4-(5,5-dimethyl-5,6-dihydro-4H-pyrrolo[1,2-b]pyrazol-3-yl)pyridin-2-yl)-3-((1r,4r)-4-((2-methoxyethyl)amino)cyclohexyl)urea] |
| 54 | 90.9 | CC1(C)Cc2c(-c3cc(NC(=O)NC4CCC(NCCO)CC4)ncc3Cl)cnn2C1 (centres unmarked) [Example 62, 1-(5-chloro-4-(5,5-dimethyl-5,6-dihydro-4H-pyrrolo[1,2-b]pyrazol-3-yl)pyridin-2-yl)-3-((1r,4r)-4-((2-hydroxyethyl)amino)cyclohexyl)urea] |
| 61 | 98 | COCCN(C)C1CCC(NC(=O)Nc2cc(-c3cnn4c3CC(C)(C)C4)c(Cl)cn2)CC1 (centres unmarked) [Example 90, 1-(5-chloro-4-(5,5-dimethyl-5,6-dihydro-4H-pyrrolo[1,2-b]pyrazol-3-yl)pyridin-2-yl)-3-((1r,4r)-4-((2-methoxyethyl)(methyl)amino)cyclohexyl)urea] |
| 51 | 83 | CC(=O)NC1CC(NC(=O)Nc2cc(-c3cnn4c3CC(C)(C)C4)c(Cl)cn2)C1 (centres unmarked) [Example 75, N-((1r,3r)-3-(3-(5-chloro-4-(5,5-dimethyl-5,6-dihydro-4H-pyrrolo[1,2-b]pyrazol-3-yl)pyridin-2-yl)ureido)cyclobutyl)acetamide] |
| 70.8 | 97.4 | [2H]C([2H])([2H])C(=O)NC1CCC(NC(=O)Nc2cc(-c3cnn4c3CC(C)(C)C4)c(Cl)cn2)CC1 (centres unmarked) [Example 54, N-((1r,4r)-4-(3-(5-chloro-4-(5,5-dimethyl-5,6-dihydro-4H-pyrrolo[1,2-b]pyrazol-3-yl)pyridin-2-yl)ureido)cyclohexyl)acetamide-2,2,2-d3] |
| 38 | 79.2 | CC(=O)NC1CCC(NC(=O)Nc2cc(-c3cnn4c3COCC4)c(Cl)cn2)CC1 (centres unmarked) [Example 82, N-((1r,4r)-4-(3-(5-chloro-4-(6,7-dihydro-4H-pyrazolo[5,1-c][1,4]oxazine-3-yl)pyridin-2-yl)ureido)cyclohexyl)acetamide] |
| 65.1 | 98.2 | [2H]C([2H])([2H])OCCNC1CCC(NC(=O)Nc2cc(-c3cnn4c3CC(C)(C)C4)c(Cl)cn2)CC1 (centres unmarked) [Example 58, 1-(5-chloro-4-(5,5-dimethyl-5,6-dihydro-4H-pyrrolo[1,2-b]pyrazol-3-yl)pyridin-2-yl)-3-((1r,4r)-4-((2-(methoxy-d3)ethyl)amino)cyclohexyl)urea] |
| 54 | 74 | CN(C)CC(=O)NC1CCC(NC(=O)Nc2cc(-c3cnn4c3CC(C)(C)C4)c(Cl)cn2)CC1 (centres unmarked) [Example 48, N-((1r,4r)-4-(3-(5-chloro-4-(5,5-dimethyl-5,6-dihydro-4H-pyrrolo [1,2-b]pyrazol-3-yl)pyridin-2-yl)ureido)cyclohexyl)-2-(dimethylamino)acetamide] |
| 55.7 | 94.2 | CNC1CCC(NC(=O)Nc2cc(-c3cnn4c3CC(C)(C)C4)c(Cl)cn2)CC1 (centres unmarked) [Example 88, 1-(5-chloro-4-(5,5-dimethyl-5,6-dihydro-4H-pyrrolo[1,2-b]pyrazol-3-yl)pyridin-2-yl)-3-((1r,4r)-4-(methylamino)cyclohexyl)urea] |
| 48.9 | 94.3 | CC1(C)Cc2c(-c3cc(NC(=O)NC4CCC(O)CC4)ncc3Cl)cnn2C1 (centres unmarked) [Example 45, 1-(5-chloro-4-(5,5-dimethyl-5,6-dihydro-4H-pyrrolo[1,2-b]pyrazol-3-yl)pyridin-2-yl)-3-((1r,4r)-4-hydroxycyclohexyl)urea] |
| 40 | 83.7 | CC1(C)Cc2c(-c3cc(NC(=O)NC4CCCC(N)CC4)ncc3Cl)cnn2C1 (centres unmarked) [Example 70, 1-(4-aminocycloheptyl)-3-(5-chloro-4-(5,5-dimethyl-5,6-dihydro-4H-pyrrolo[1,2-b]pyrazole-3-yl)pyridin-2-yl)urea] |
| 49 | 87.3 | CC(C)NC1CCC(NC(=O)Nc2cc(-c3cnn4c3CC(C)(C)C4)c(Cl)cn2)CC1 (centres unmarked) [Example 60, 1-(5-chloro-4-(5,5-dimethyl-5,6-dihydro-4H-pyrrolo[1,2-b]pyrazol-3-yl)pyridin-2-yl)-3-((1r,4r)-4-(isopropylamino)cyclohexyl)urea] |
